Values quoted from earlier work as cited in US6444224B1 (Interag, priority 1997, dated 2002).

How the values were obtained:
pigs [1] = conditions: oral, once daily at feeding
pigs [2] = conditions: 15, 25, 50 mg per day (IM) for 14 days

| Compound | Effectiveness to control oestrus and ovulation (pigs [1]) | Control of the oestrus cycle (pigs [2]) | Fertility (pigs [2]) |
| --- | --- | --- | --- |
| C=CC[C@]1(O)CC[C@H]2[C@@H]3CCC4=CC(=O)CCC4=C3C=C[C@@]21C [altrenogest] | effective |  |  |
| C=CC(C)NC(=S)NNC(=S)NC (stereo not shown) [methallibure] | effective |  |  |
| CC(=O)[C@H]1CC[C@H]2[C@@H]3CCC4=CC(=O)CC[C@]4(C)[C@H]3CC[C@]12C [progesterone] |  | results in control of the oestrus cycle | poor fertility results |
